Reference: BigSolDB 2.1

CC1=CC(=O)[N-]S(=O)(=O)O1.[K+]
Conditions | solubility (mole fraction)
in ethanol, 277.1 K | 0.000123
in ethanol, 282.39 K | 0.000154
in ethanol, 287.47 K | 0.000176
in ethanol, 292.3 K | 0.0002
in ethanol, 297.55 K | 0.000226
in ethanol, 302.65 K | 0.000259
in ethanol, 307.9 K | 0.0003
in ethanol, 312.93 K | 0.000396
in ethanol, 317.87 K | 0.000496
in ethanol, 322.9 K | 0.000634
in methanol, 277.7 K | 0.000156
in methanol, 281.79 K | 0.000173
in methanol, 286.1 K | 0.000189
in methanol, 290.39 K | 0.000205
in methanol, 294.2 K | 0.000222
in methanol, 298.51 K | 0.000238
in methanol, 302.21 K | 0.000256
in methanol, 307.8 K | 0.000288
in methanol, 311.39 K | 0.000313
in methanol, 315.47 K | 0.000341
in methanol, 319.3 K | 0.000371
in methanol, 322.8 K | 0.000401
in water, 277.98 K | 0.000151
in water, 281.23 K | 0.000167
in water, 284.73 K | 0.000186
in water, 288.35 K | 0.000207
in water, 294.9 K | 0.000249
in water, 298.02 K | 0.000271
in water, 301.03 K | 0.000292
in water, 304.01 K | 0.000314
in water, 307.07 K | 0.000338
in water, 310.24 K | 0.000363
in water, 313.53 K | 0.00039
in water, 317.3 K | 0.000419
in water, 322.3 K | 0.000474
